Results taken from the supplement of paper PMC10307832.

Columns and labels:
Test in all cases: relative viability (nuclei count vs DMSO), 5 days (fraction); higher = more cells survive
[1] = compound: C1/C(=C\C2=CC=CS2)/C(=O)/C(=C/C3=CC=CS3)/C1 + CCNC(=O)c1noc(-c2cc(C(C)C)c(O)cc2O)c1-c1ccc(CN2CCOCC2)cc1 [Luminespib] (partner 0.01 µM)
Method in brief: (§1)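 For relative viability, nuclei counts in treated wells were divided by those in vehicle wells. Lung cancer cell lines had been pin-tool dosed in 1536-well plates the day after seeding and cultured for 5 days, then fixed and stained in one step (final 0.05% Triton X-100, 1% formaldehyde, 1 ug/ml Hoechst) and imaged at 4×. Doses were one drug alone or a fixed anchor-drug dose plus five library-drug doses (not always all listed) in √10 steps, and values are duplicate-plate medians.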

[2] = compound: C1/C(=C\C2=CC=CS2)/C(=O)/C(=C/C3=CC=CS3)/C1 + C[C@@H](Oc1cc(-c2cnn(C3CCNCC3)c2)cnc1N)c1c(Cl)ccc(F)c1Cl [Crizotinib] (partner 1 µM)
Method in brief: as §1

[3] = compound: C1/C(=C\C2=CC=CS2)/C(=O)/C(=C/C3=CC=CS3)/C1 + NC(=O)Nc1cc(-c2cccc(F)c2)sc1C(=O)N[C@H]1CCCNC1 [AZD7762] (partner 0.2 µM)
Method in brief: as §1

TPCA-1 + Lapatinib = compound: C1=CC(=CC=C1C2=CC(=C(S2)NC(=O)N)C(=O)N)F [TPCA-1] + CS(=O)(=O)CCNCc1ccc(-c2ccc3ncnc(Nc4ccc(OCc5cccc(F)c5)c(Cl)c4)c3c2)o1 [Lapatinib] (partner 2 µM)
Method in brief: as §1

Cell Line	relative viability ([1]; first compound 0.2 µM)	relative viability ([1]; first compound 0.6325 µM)	relative viability ([1]; first compound 2 µM)	relative viability ([1]; first compound 6.325 µM)	relative viability ([1]; first compound 20 µM)	relative viability ([2]; first compound 0.2 µM)	relative viability ([2]; first compound 0.6325 µM)	relative viability ([2]; first compound 2 µM)	relative viability ([2]; first compound 6.325 µM)	relative viability ([2]; first compound 20 µM)	relative viability ([3]; first compound 0.6325 µM)	relative viability ([3]; first compound 2 µM)	relative viability ([3]; first compound 6.325 µM)	relative viability ([3]; first compound 20 µM)	relative viability (TPCA-1 + Lapatinib; first compound 0.04 µM)	relative viability (TPCA-1 + Lapatinib; first compound 0.1265 µM)	relative viability (TPCA-1 + Lapatinib; first compound 0.4 µM)	relative viability (TPCA-1 + Lapatinib; first compound 1.265 µM)	relative viability (TPCA-1 + Lapatinib; first compound 4 µM)	relative viability ([3]; first compound 0.2 µM)
PC-3 [JPC-3]	0.807	0.645	0.689	0.556	0.659	0.978	0.997	0.944	0.859	1	0.934	0.889	0.804	0.798	0.435	0.487	0.481	0.454	0.434	
HCC-15	0.396	0.245	0.234	0.211	0.219	0.833	0.881	0.771	0.779	0.79	1.33	1.41	1.06	1.13	0.942	0.856	0.908	0.819	0.52	1.14
LU99A	0.245	0.201	0.268	0.224	0.281	0.539	0.665	0.625	0.466	0.562	0.295	0.415	0.248	0.29	1.02	0.872	1.11	0.81	0.426	0.413
NCI-H1666	1.09	1.01	1.02	0.49	1.04	1.23	1.19	1.09	0.643	0.974	0.86	0.968	0.793	0.815	0.539	0.569	0.865	0.707	0.631	0.877
NCI-H2170	0.98	0.582	0.788	0.632	0.719	1.29	1.29	1.26	1.03	1.07	0.923	0.866	0.714	0.764	0.263	0.272	0.261	0.284	0.248	0.921
LCLC-97TM1	0.734	0.813	0.754	0.782	0.803	0.328	0.433	0.453	0.252	0.462	0.254	0.259	0.252	0.14	1.47	0.719	1.3	0.852	0.518	0.3
NCI-H3122	0.112	0.0975	0.0926	0.0901	0.086	0.247	0.273	0.279	0.215	0.272	0.919	0.968	0.956	0.967	1.03	0.939	0.985	1.05	0.976	0.983
NCI-H1651	0.97	0.933	1.13	0.751	0.716	0.863	0.876	0.893	0.816	0.855	0.511	0.486	0.505	0.45	1.02	0.746	0.951	0.848	0.8	0.474
HARA	0.785	0.923	1.09	0.853	0.791	0.985	1.05	1.03	0.758	1.03	0.271	0.319	0.361	0.336	0.744	0.988	0.791	0.722	0.691	0.431
NCI-H1944	0.762	0.731	0.674	0.695	0.626	1.18	1.12	1.09	1.01	0.977	0.461	0.526		0.442	0.999	0.68	0.838	0.7	0.682	0.502
NCI-H2347	0.405	0.959	0.381		0.466	0.717	0.771	0.7	0.689	0.606	0.696	0.866	0.65	0.792	1.07	0.739	0.963	0.78	0.896	0.788
201T	1.14	1.05	1.04	1.03	1.01	1.05	1.04	1.07	0.996	1.01	0.704	0.689	0.411	0.58	1.05	1.02	1.01	1.01	1.05	0.626
PC-14	0.139	0.145	0.179	0.187	0.15	0.995	0.838	0.819	0.725	0.956	0.357	0.352	0.306	0.432	0.336	0.327	0.321	0.394	0.299	0.433
NCI-H727	0.428	0.336	0.433	0.477	0.308	0.885	0.779	0.755	0.745	0.762	0.527	0.731		0.682	0.83	0.772	0.694	0.815	0.738	0.574
NCI-H1792	0.509	0.285	0.468	0.583	0.388	0.991	0.998	1.07		1.06	0.755	0.75	0.521	0.587	0.964	0.893	0.843	0.9	0.455	0.772
HOP-62	0.992	1.03	0.909	0.861	0.918	0.985	1.07	1	0.712	0.804	0.688	0.657	0.385	0.692	1.23	0.901	1.02	0.882	0.873	0.661

Cell Line	relative viability ([1]; first compound 0.2 µM)	relative viability ([1]; first compound 0.6325 µM)	relative viability ([1]; first compound 2 µM)	relative viability ([1]; first compound 6.325 µM)	relative viability ([1]; first compound 20 µM)	relative viability ([2]; first compound 0.2 µM)	relative viability ([2]; first compound 0.6325 µM)	relative viability ([2]; first compound 2 µM)	relative viability ([2]; first compound 6.325 µM)	relative viability ([2]; first compound 20 µM)	relative viability ([3]; first compound 0.6325 µM)	relative viability ([3]; first compound 2 µM)	relative viability ([3]; first compound 6.325 µM)	relative viability ([3]; first compound 20 µM)	relative viability (TPCA-1 + Lapatinib; first compound 0.04 µM)	relative viability (TPCA-1 + Lapatinib; first compound 0.1265 µM)	relative viability (TPCA-1 + Lapatinib; first compound 0.4 µM)	relative viability (TPCA-1 + Lapatinib; first compound 1.265 µM)	relative viability (TPCA-1 + Lapatinib; first compound 4 µM)	relative viability ([3]; first compound 0.2 µM)
NCI-H1915	0.851	0.786	0.741	0.356	0.821	0.86	0.951	0.912	0.841	0.893	0.67	0.689	0.642	0.677	1.06	0.984	1.03	0.875	0.813	0.73
BEN	0.477	0.403	0.476	0.344	0.253	0.941	0.947	1.02	0.861	0.706	0.635	0.774	0.643	0.679	0.731	0.5	0.672	0.793	0.661	0.739
NCI-H1437	1.26	1.23	1.06	0.95	1.09	0.954	0.886	0.828	0.902	0.824	1.2	1.19	1.03	1.1	0.888	0.764	0.85	0.742	0.604	1.14
EMC-BAC-2	1.23	1.23	1.19	1.09	1.12	0.789	0.792	0.751	0.59	0.695	1.1	1.09	0.91	1.12	0.993	0.854	0.895	0.752	0.756	1.19
NCI-H647	0.154	0.186	0.149	0.203	0.158	1.2	1.1	1.12	0.992	1	0.471	0.446	0.445	0.592	1.34	0.919	1.06	0.671	0.466	0.504
LXF-289	0.705	0.735	0.633	0.611	0.691	0.811	0.835	0.767	0.709	0.821	1.13	1.16	1	1.07	0.914	0.927	0.807	0.831	0.726	1.07
LOU-NH91	0.332	0.358	0.413	0.328	0.338	0.739	0.572	0.743	0.679	0.714	0.837	0.834	0.697	0.745	0.796	0.717	0.753	0.779	0.596	0.744
NCI-H23	0.237	0.197	0.2	0.203	0.194	0.411	0.627	0.661	0.527	0.511	0.342	0.294	0.244	0.175	1.06	0.96	1.05	1	0.349	0.25
NCI-H1993	0.727	0.765	0.726	0.763	1.78	0.897	0.9	0.784	0.63	0.743	0.747	0.958	0.62	0.499	0.855		0.735	0.765	1.11	0.783
HCC-827	0.85	0.608	0.454	0.592	0.636	0.961	0.898	0.949	0.635	0.978	0.192	0.245	0.226	0.245	0.193	0.198	0.188	0.166	0.132	0.21
NCI-H650	0.901	0.701	0.826	0.735	0.944	0.658	0.921	0.632	0.893	0.768	0.952	0.897	0.937	1.11	1.03	1.05	0.93	0.357	0.487	1.14
CAL-12T	0.374	0.316	0.404	0.444	0.364	0.839	0.912	0.673	0.362	0.596	0.84	0.592	0.537	0.547	0.638	0.582	0.708	0.38	0.389	0.597
NCI-H838	0.387	0.253	0.309	0.222	0.281	0.896	0.889	0.807	0.784	0.858	0.949	0.933	0.875	0.841	1.14	0.864	1.12	0.598	0.565	0.967
RERF-LC-KJ	1.26	1.36	1.25	1.15	1.14	0.794	0.843	0.832	0.763	0.754	1.04	1.05	0.87	1.06	0.966	0.79	0.808	0.809	0.765	1.09
HCC-44	1.09	1.19	1.08	0.942	0.965	0.802	0.862	0.712	0.734	0.798	1.03	0.857	0.84	1.03	0.974	0.961	1	0.913	0.904	1.03
A-427	1.01	0.905	0.939	0.876	0.977	1.06	0.888	0.946	0.813	0.955	0.836	0.822	0.724	0.72	1.17	0.901	1.05	0.989	0.907	0.78
